Laboratory results from patent publication US9028845B2, “Chimeric immunomodulatory compounds and methods of using the same-IV” (Dynavax Technologies Corporation, priority 2001, dated 2015).

Test system: human PBMCs
Assay: Human PBMC cytokine response assay (IFN-γ and IFN-α in cell-free medium by ELISA), with or without cPLGA
Type: cell-based
Conditions: for IFN-α from human PBMC compared with parent oligonucleotide P-17, in words: low doses (e.g., 0.8 ug/ml), four individuals
[1] = Example 58, 0.8 ug/ml, mean of four individuals
[2] = Example 58, 4 ug/ml, mean of four individuals
[3] = Example 58, 20 ug/ml, mean of four individuals

| Substance | IFN-α (Example 58, 0.8 ug/ml, donor 1) [pg/mL] | IFN-α (Example 58, 0.8 ug/ml, donor 2) [pg/mL] | IFN-α (Example 58, 0.8 ug/ml, donor 3) [pg/mL] | IFN-α (Example 58, 0.8 ug/ml, donor 4) [pg/mL] | IFN-α mean [1] [pg/mL] | IFN-α (Example 58, 4 ug/ml, donor 1) [pg/mL] | IFN-α (Example 58, 4 ug/ml, donor 2) [pg/mL] | IFN-α (Example 58, 4 ug/ml, donor 3) [pg/mL] | IFN-α (Example 58, 4 ug/ml, donor 4) [pg/mL] | IFN-α mean [2] [pg/mL] | IFN-α (Example 58, 20 ug/ml, donor 1) [pg/mL] | IFN-α (Example 58, 20 ug/ml, donor 2) [pg/mL] | IFN-α (Example 58, 20 ug/ml, donor 3) [pg/mL] | IFN-α (Example 58, 20 ug/ml, donor 4) [pg/mL] | IFN-α mean [3] [pg/mL] | IFN-α from human PBMC compared with parent oligonucleotide P-17, in words | further results |
| --- | --- | --- | --- | --- | --- | --- | --- | --- | --- | --- | --- | --- | --- | --- | --- | --- | --- |
| (5′-TAGTCAT-3′-HEG)2-glycerol-HEG-5′-AACCTTC-3′ [Compound M-3, reference compound] | 52 | 52 | 52 | 52 | 52 | 52 | 52 | 52 | 52 | 52 | 52 | 52 | 52 | 52 | 52 | – | IFN-α (Example 59, 0.8 ug/ml, donor 48): 102 pg/mL; IFN-α (Example 59, 0.8 ug/ml, donor 177): 102 pg/mL; IFN-α (Example 59, 0.8 ug/ml, donor 272): 102 pg/mL; IFN-α (Example 59, 0.8 ug/ml, donor 273): 102 pg/mL; IFN-α mean (Example 59, 0.8 ug/ml, mean of four donors): 102 pg/mL; IFN-α (Example 59, 4 ug/ml, donor 48): 102 pg/mL; IFN-α (Example 59, 4 ug/ml, donor 177): 102 pg/mL; IFN-α (Example 59, 4 ug/ml, donor 272): 102 pg/mL; IFN-α (Example 59, 4 ug/ml, donor 273): 102 pg/mL; IFN-α mean (Example 59, 4 ug/ml, mean of four donors): 102 pg/mL; IFN-α (Example 59, 20 ug/ml, donor 48): 102 pg/mL; IFN-α (Example 59, 20 ug/ml, donor 177): 102 pg/mL; IFN-α (Example 59, 20 ug/ml, donor 272): 102 pg/mL; IFN-α (Example 59, 20 ug/ml, donor 273): 102 pg/mL; IFN-α mean (Example 59, 20 ug/ml, mean of four donors): 102 pg/mL |
| (5′-TCGAACGTTCGA-3′ (SEQ ID NO: 155)-HEG)2-glycerol-HEG-3′-AGCTTGCAAGCT-5′ (SEQ ID NO: 155) (DNA, all phosphorothioate, methylation of C not given here; Three DNA copies joined by HEG spacers and glycerol branching, one copy inverted) [Compound C-174] | 7907 | 11198 | 998 | 1752 | 5464 | 5601 | 7845 | 1016 | 5895 | 5089 | 1350 | 1176 | 61 | 837 | 856 | induce significantly more IFN-α | – |
| (5′-TCGAACGTTCGA-3′ (SEQ ID NO: 155)-HEG)2-glycerol-HEG-5′-TCGAACGTTCGA-3′ (SEQ ID NO: 155) (three copies via HEG-glycerol branching, chemistry not fully specified) [Compound C-173] | 272 | 1293 | 1138 | 2547 | 1312 | 3828 | 2917 | 2197 | 3563 | 3126 | 14381 | 8060 | 66 | 299 | 5701 | induce significantly more IFN-α | – |
| (5′-TCGAACGTTCGA-3′ (SEQ ID NO: 155)-HEG)3-trebler-HEG-5′-T-3′ (three copies HEG-trebler branched, HEG-T, chemistry not fully specified) [Compound C-175] | 21783 | 16605 | 851 | 2874 | 10528 | 7134 | 6779 | 906 | 1951 | 4193 | 2250 | 732 | 52 | 52 | 771 | induce significantly more IFN-α | – |
